From ChEMBL document CHEMBL4000225, “A matrix-focused structure-activity and binding site flexibility study of quinolinol inhibitors of botulinum neurotoxin serotype A” (Bioorg Med Chem Lett, 2017) come the findings set out here.

In general, IC50 refers to the concentration at which inhibition is half-maximal.

In test [1] the target is Botulinum neurotoxin type A (Clostridium botulinum) (UniProt P0DPI0). Briefly: Inhibition of Clostridium botulinum Hall BoNT/A light chain-induced paralysis in CD1 mouse phrenic nerve diaphragm assessed as compound concentration required to cause delay in time to 50% loss of twitch tension evoked by nerve stimulation at 20 uM preincubated with BoNT/A light chain for 15 to 20 mins followed by addition to diaphragm. Conditions: Clostridium botulinum A str. Hall.

In test [2] the target is Botulinum neurotoxin type A (Clostridium botulinum, UniProt P0DPI0). Briefly: Inhibition of protease activity of recombinant full length Clostridium botulinum Hall BoNT/A light chain using SNAP-25 peptide (187 to 203 residues) as substrate after 5 mins by HPLC analysis. Further details: species or system Clostridium botulinum A str. Hall.
In test [3] the target is Botulinum neurotoxin type A (Clostridium botulinum) (UniProt P0DPI0). Briefly: Inhibition of Clostridium botulinum Hall BoNT/A light chain-induced paralysis in CD1 mouse phrenic nerve diaphragm assessed as compound concentration required to cause delay in time to 50% loss of twitch tension evoked by nerve stimulation preincubated with BoNT/A light chain for 15 to 20 mins followed by addition to diaphragm. Conditions: Clostridium botulinum A str. Hall.

The source made the active and inactive calls. No cut-off for these calls is given here.

Botulinum neurotoxin type A (Clostridium botulinum), sequence (P0DPI0 2-448 limits assumed): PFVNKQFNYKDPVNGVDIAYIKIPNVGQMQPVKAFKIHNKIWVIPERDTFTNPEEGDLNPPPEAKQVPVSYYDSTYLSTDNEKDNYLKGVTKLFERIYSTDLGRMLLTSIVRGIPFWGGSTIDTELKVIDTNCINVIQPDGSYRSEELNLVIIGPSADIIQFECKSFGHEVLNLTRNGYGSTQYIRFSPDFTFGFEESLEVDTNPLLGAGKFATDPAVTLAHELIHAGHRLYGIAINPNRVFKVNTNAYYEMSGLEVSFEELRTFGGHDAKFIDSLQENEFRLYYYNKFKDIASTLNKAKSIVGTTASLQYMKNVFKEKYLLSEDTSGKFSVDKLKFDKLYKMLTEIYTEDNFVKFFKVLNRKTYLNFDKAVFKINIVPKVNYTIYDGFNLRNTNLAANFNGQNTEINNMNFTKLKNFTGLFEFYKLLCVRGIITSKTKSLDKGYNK
Botulinum neurotoxin type A, sequence (P0DPI0 2-448 limits assumed): as above

As for `Cc1ccc2ccc(C(Nc3ncccn3)c3ccc(F)cc3F)c(O)c2n1` (stereo not drawn), the inhibition result in test [1] was “inactive”. Besides, the IC50 in test [2] was 4300 nM. With `Cc1ccc2cccc(O)c2n1` [8-HYDROXY QUINALDINE], in test [2], the 50% inhibitory concentration (IC50) was 3900 nM. On to `Oc1c(C(Nc2ccccn2)c2ccc(F)cc2F)cc(Cl)c2cccnc12` (stereo not drawn), for which the Activity in test [3] is 20 µM. For the same compound, the half-inhibitory concentration (IC50) in test [2] came to 700 nM. In the case of `Cc1ccc2ccc(C(Nc3ncccn3)c3ccc(F)cc3)c(O)c2n1` (stereo not drawn), in test [3], the Activity came out at 20 µM. Moreover, in test [2], the IC50 turned out to be 4200 nM. Consider `Nc1cccnc1`, for which the IC50 in test [2] stood at 3300 nM. Same read-out and setting: for `O=Cc1ccccc1F` the value was 2800 nM. As to `Oc1c(C(Nc2cccnc2)c2ccccc2)cc(Cl)c2cccnc12` (stereo not drawn), the Activity in test [3] came out at 2 µM. In addition, the IC50 in test [2] worked out at 3500 nM. On the same counts, the results for `Oc1c(C(Nc2cccnc2)c2ccc(F)cc2)cc(Cl)c2cccnc12` (stereo not drawn) are 2 µM and 2300 nM. On the same counts, the results for `Oc1c(C(Nc2cccnc2)c2ccc(F)cc2F)cc(Cl)c2cccnc12` (stereo not drawn) are 20 µM and 600 nM.

In the case of `Cc1ccc2ccc(C(Nc3ncccn3)c3ccccc3)c(O)c2n1` (stereo not drawn), in test [1], the inhibition entry was “inactive”. Also, the half-inhibitory concentration (IC50) in test [2] stood at 4600 nM. As for `Oc1c(C(Nc2ccccn2)c2ccccc2)ccc2cccnc12` (stereo not drawn), the Activity in test [3] was 10 µM. `O=Cc1ccc(F)cc1`: in test [2], the 50% inhibitory concentration (IC50) was 2300 nM. Regarding `Cc1ccc2ccc(C(Nc3cccnc3)c3ccccc3)c(O)c2n1` (stereo not drawn), in test [3], the Activity is 20 µM. In the case of `Cc1ccc2ccc(C(Nc3ccccn3)c3ccc(F)cc3)c(O)c2n1` (stereo not drawn), in test [3], the Activity is 20 µM. For the same compound, the IC50 in test [2] amounted to 1600 nM. On to `Oc1c(C(Nc2ncccn2)c2ccc(F)cc2)cc(Cl)c2cccnc12` (stereo not drawn), for which, in test [3], the Activity is 20 µM. The 50% inhibitory concentration (IC50) in test [2] was 700 nM. On the same counts, the results for `Oc1c(C(Nc2ccccn2)c2ccc(F)cc2)cc(Cl)c2cccnc12` (stereo not drawn) are 20 µM and 600 nM.

In the case of `Oc1c(C(Nc2ccccn2)c2ccc(F)cc2F)ccc2cccnc12` (stereo not drawn), in test [3], the Activity amounted to 20 µM. For the same compound, the IC50 in test [2] worked out at 3600 nM.

Regarding `Cc1ccc2ccc(C(Nc3cccnc3)c3ccccc3F)c(O)c2n1` (stereo not drawn), in test [3], the Activity came to 20 µM. The IC50 in test [2] amounted to 700 nM.

`Nc1ncccn1`: in test [2], the half-maximal inhibitory concentration (IC50) worked out at 4600 nM. For the compound `Oc1c(C(Nc2cccnc2)c2ccccc2F)cc(Cl)c2cccnc12` (stereo not drawn), the Activity in test [3] stood at 2 µM. Further, the IC50 in test [2] came out at 700 nM. On the same counts, the results for `Oc1c(C(Nc2ccccn2)c2ccccc2)cc(Cl)c2cccnc12` (stereo not drawn) are 2 µM and 1500 nM. As to `Oc1c(C(Nc2cccnc2)c2ccc(F)cc2F)ccc2cccnc12` (stereo not drawn), the Activity in test [3] is 20 µM. In addition, in test [2], the half-inhibitory concentration (IC50) amounted to 4400 nM.

For `Cc1ccc2ccc(C(Nc3ccccn3)c3ccc(F)cc3F)c(O)c2n1` (stereo not drawn), the Activity in test [3] is 20 µM. In addition, in test [2], the half-inhibitory concentration (IC50) was 2700 nM. On to `O=Cc1ccc(F)cc1F`, for which the half-maximal inhibitory concentration (IC50) in test [2] turned out to be 4900 nM. Take `Oc1c(C(Nc2cccnc2)c2ccccc2)ccc2cccnc12` (stereo not drawn): the Activity in test [3] was 20 µM. Moreover, the IC50 in test [2] is 6200 nM.

As to `Oc1c(C(Nc2ncccn2)c2ccccc2F)ccc2cccnc12` (stereo not drawn), the inhibition entry in test [1] was “inactive”. Moreover, in test [2], the IC50 was 1900 nM. As for `Oc1cccc2cccnc12` [OXYQUINOLINE], in test [2], the 50% inhibitory concentration (IC50) was 3900 nM. `Oc1c(C(Nc2cccnc2)c2ccccc2F)ccc2cccnc12` (stereo not drawn): in test [3], the Activity turned out to be 10 µM. On to `Oc1c(C(Nc2ncccn2)c2ccc(F)cc2F)cc(Cl)c2cccnc12` (stereo not drawn), for which the inhibition result in test [1] was “inactive”. Further, the IC50 in test [2] was 2200 nM. Turning to `Cc1ccc2ccc(C(Nc3ncccn3)c3ccccc3F)c(O)c2n1` (stereo not drawn), the inhibition entry in test [1] was “inactive”. Also, in test [2], the concentration for half-maximal inhibition (IC50) worked out at 12000 nM. Consider `Oc1ccc(Cl)c2cccnc12` [CLOXYQUIN], for which the IC50 in test [2] was 1900 nM. For the compound `Oc1c(C(Nc2cccnc2)c2ccc(F)cc2)ccc2cccnc12` (stereo not drawn), in test [3], the Activity came to 2 µM. In addition, in test [2], the half-inhibitory concentration (IC50) stood at 4600 nM. For `Oc1c(C(Nc2ncccn2)c2ccccc2)cc(Cl)c2cccnc12` (stereo not drawn) the same measures were 2 µM and 4500 nM. On the same counts, the results for `Oc1c(C(Nc2ncccn2)c2ccccc2F)cc(Cl)c2cccnc12` (stereo not drawn) are 2 µM and 4000 nM.

Regarding `Oc1c(C(Nc2ncccn2)c2ccccc2)ccc2cccnc12` (stereo not drawn), the inhibition entry in test [1] was “inactive”. Also, the IC50 in test [2] was 2700 nM. As for `Nc1ccccn1` [2-AMINOPYRIDINE], the concentration for half-maximal inhibition (IC50) in test [2] was determined as 1800 nM. As to `Oc1c(C(Nc2ccccn2)c2ccccc2F)cc(Cl)c2cccnc12` (stereo not drawn), in test [3], the Activity turned out to be 20 µM. Also, in test [2], the IC50 came out at 1400 nM. For `Oc1c(C(Nc2ncccn2)c2ccc(F)cc2F)ccc2cccnc12` (stereo not drawn), the inhibition result in test [1] was “inactive”. Also, in test [2], the 50% inhibitory concentration (IC50) turned out to be 12700 nM. On to `Cc1ccc2ccc(C(Nc3ccccn3)c3ccccc3F)c(O)c2n1` (stereo not drawn), for which, in test [3], the Activity amounted to 2 µM. The IC50 in test [2] was 1400 nM. For `Oc1c(C(Nc2ncccn2)c2ccc(F)cc2)ccc2cccnc12` (stereo not drawn) the same measures were 20 µM and 1700 nM.

On to `Cc1ccc2ccc(C(Nc3cccnc3)c3ccc(F)cc3F)c(O)c2n1` (stereo not drawn), for which the Activity in test [3] was 2 µM. Also, the IC50 in test [2] was determined as 12300 nM. For `Oc1c(C(Nc2ccccn2)c2ccccc2F)ccc2cccnc12` (stereo not drawn) the same measures were 20 µM and 1200 nM. As for `Cc1ccc2ccc(C(Nc3cccnc3)c3ccc(F)cc3)c(O)c2n1` (stereo not drawn), the Activity in test [3] amounted to 20 µM.

In the case of `Cc1ccc2ccc(C(Nc3ccccn3)c3ccccc3)c(O)c2n1` (stereo not drawn), in test [3], the Activity amounted to 2 µM. In addition, the 50% inhibitory concentration (IC50) in test [2] was 700 nM.

For the compound `Oc1c(C(Nc2ccccn2)c2ccc(F)cc2)ccc2cccnc12` (stereo not drawn), the Activity in test [3] amounted to 2 µM. Also, in test [2], the 50% inhibitory concentration (IC50) came to 4100 nM. For the compound `O=Cc1ccccc1` [BENZALDEHYDE], the IC50 in test [2] was 2900 nM.
